Experimental data as given in patent US11946094B2, “Combination therapies and methods of use thereof” (Augusta University Research Institute, Inc., priority 2017, dated 2024).
Read-outs that look alike come from different tables or passages of the source.

Tested on: OVCAR-8 cells
Experiment: Drug-siRNA combination screen: 346-compound anticancer library at 100 nM, CCK-8 viability
[1] = OVCAR-8, drug 100 nM plus siRNA knockdown of each of 18 genes, distance VAB−VA×VB in SD, single gene contributes at most +5 / −5, negative = synergy, positive = antagonism
[2] = OVCAR-8, drug 100 nM, panel of 18 siRNA knockdowns

Protocol: Comparisons of drug effect were performed using data generated on the same day. A minimum of two replicates was performed with drug library screening and a minimum of three replicates was done for all other tests.
Combinatorial effects were classified using two measures of combinatorial action: 1) the coefficient of drug interaction (CDI), defined as (VAB/(VA×VB)) and 2) the distance in standard deviation (SD) of VAB−(VA×VB). […] In confirmation studies significance was determined using a Student's T-test (two-tailed, unpaired) with p<0.05 indicating significance.
To measure the effect of a gene on drug effect, comparisons were made between high expressers of each gene and the wild type cells exposed to sham reagents.
In theory, CDI<1 is indicative of synergy while CDI>1 is indicative of antagonism or additive effect in a multiplicative model.

In the case of O=S(=O)([O-])CCSSCCS(=O)(=O)[O-].[Na+].[Na+] [Dimesna], the “Score (sum of observed SD values for 18 genes)” value [1] was −2.17 SD.
In the case of C[C@]12CC[C@@H]3c4ccc(O)cc4CC[C@H]3[C@@H]1CCC2=O [Estrone], the “Score (sum of observed SD values for 18 genes)” value [1] was −21.19 SD.
For Cc1cccc(-c2nn3c(c2-c2ccnc4ccc(C(N)=O)cc24)CCC3)n1 [LY2157299], the “Score (sum of observed SD values for 18 genes)” value [1] was −0.82 SD.
Cc1nc(N)sc1-c1ccnc(Nc2ccc(N3CCOCC3)cc2)n1 [CYC116] was tested, and the “Score (sum of observed SD values for 18 genes)” value [1] was −28.81 SD.
For CCC[C@H](NC(=O)/C(C#N)=C/c1cccc(Br)n1)c1ccccc1 [WP1130], the “Score (sum of observed SD values for 18 genes)” value [1] was 3.15 SD.
Medroxyprogesterone was tested, and the “Score (sum of observed SD values for 18 genes)” value [1] was −35.82 SD.
In the case of Cc1ccccc1-n1c(Cn2cnc3c(N)ncnc32)nc2cccc(C)c2c1=O [IC - 87114], the “Score (sum of observed SD values for 18 genes)” value [1] was 14.65 SD.
For CCOc1cc2ncc(C#N)c(Nc3ccc(OCc4ccccn4)c(Cl)c3)c2cc1NC(=O)/C=C/CN(C)C [Neratinib], the “Score (sum of observed SD values for 18 genes)” value was −39.86 SD and the “synergy / antagonism of drug with gene knockdowns, in words” value (shortened to “synergy / antagonism of drug”) was “significant synergy with nine or more genes”.
C=CC(=O)Nc1cccc(Oc2nc(Nc3ccc(N4CCN(C)CC4)cc3OC)ncc2Cl)c1 [WZ4002] was tested, and the “Score (sum of observed SD values for 18 genes)” value [1] was −41.61 SD.
CN1CCN(c2cccc(Nc3nc4c(-c5ccc(S(C)(=O)=O)cc5)cccn4n3)c2)CC1 [CEP33779] was tested, and the “Score (sum of observed SD values for 18 genes)” value [1] was −27.66 SD.
In the case of CC[C@H](Nc1ncnc2[nH]cnc12)c1nc2cccc(F)c2c(=O)n1-c1ccccc1 [CAL-101], the “Score (sum of observed SD values for 18 genes)” value [1] was −27.89 SD.
COc1ccc(S(=O)(=O)Nc2cccnc2Nc2ccc(O)cc2)cc1 [ABT-751] was tested, and the “Score (sum of observed SD values for 18 genes)” value [1] was −13.93 SD.
For Nc1nc(F)nc2c1ncn2[C@@H]1O[C@H](COP(=O)(O)O)[C@@H](O)[C@@H]1O [Fludarabine Phosphate], the “Score (sum of observed SD values for 18 genes)” value was −11.05 SD.
CS(=O)(=O)N1CCN(Cc2cc3nc(-c4cccc5[nH]ncc45)nc(N4CCOCC4)c3s2)CC1 [GDC-0941] was tested, and the “Score (sum of observed SD values for 18 genes)” value [1] was -58.02 SD and the “synergy / antagonism of drug” value [2] was “synergy to the vast majority of genes”.
COc1ccc2c(c1OC)N=C(NC(=O)c1cccnc1)N1CCN=C21 [PIK-90] was tested, and the “Score (sum of observed SD values for 18 genes)” value [1] was −44.52 SD.
With Cc1cnc(NC(=O)Nc2cc(Br)c(C)cc2OC[C@@H]2CNCCO2)cn1 [LY2603618] the “Score (sum of observed SD values for 18 genes)” value [1] was -52.09 SD and the “synergy / antagonism of drug” value [2] was “high level of synergism”.
With COc1cc2c(Oc3ccc4[nH]c(C)cc4c3F)ncnc2cc1OCCCN1CCCC1 [Cediranib] the “Score (sum of observed SD values for 18 genes)” value [1] was −11.55 SD.
With C[C@]12C=CC(=O)C=C1CC[C@H]1[C@@H]3C[C@@H](O)[C@](O)(C(=O)CO)[C@@]3(C)C[C@H](O)[C@@]12F [Triamcinolone] the “Score (sum of observed SD values for 18 genes)” value [1] was −26.66 SD.
With NC(=O)C1CCCc2c1[nH]c1ccc(Cl)cc21 (centres unmarked) [EX 527] the “Score (sum of observed SD values for 18 genes)” value [1] was −22.45 SD.
In the case of Cn1c(=O)n(-c2ccc(C(C)(C)C#N)cc2)c2c3cc(-c4cnc5ccccc5c4)ccc3ncc21 [BEZ235], the “Score (sum of observed SD values for 18 genes)” value [1] was −35.65 SD.
In the case of Cc1ccc(C(=O)Nc2ccc(CN3CCN(C)CC3)c(C(F)(F)F)c2)cc1C#Cc1cnc2cccnn12 [Ponatinib], the “Score (sum of observed SD values for 18 genes)” value was −28.62 SD.
For CCC(C)n1ncn(-c2ccc(N3CCN(c4ccc(OCC5COC(Cn6cncn6)(c6ccc(Cl)cc6Cl)O5)cc4)CC3)cc2)c1=O (centres unmarked) [Itraconazole], the “Score (sum of observed SD values for 18 genes)” value [1] was −13.51 SD.
C=CCc1cccc(/C=N/NC(=O)CN2CCN(Cc3ccccc3)CC2)c1O [PAC - 1] was tested, and the “Score (sum of observed SD values for 18 genes)” value [1] was −13.56 SD.
In the case of CNC(=O)c1cc(Oc2ccc(NC(=O)Nc3ccc(Cl)c(C(F)(F)F)c3)c(F)c2)ccn1 [Regorafinib], the “Score (sum of observed SD values for 18 genes)” value [1] was 3.75 SD.
In the case of O=c1[nH]c(=O)n(C2CCCO2)cc1F (centres unmarked) [Ftorafur], the “Score (sum of observed SD values for 18 genes)” value [1] was −9.75 SD.
O=C(O)C(Cc1c[nH]c2ccccc12)N1C(=O)c2ccccc2C1=O (centres unmarked) [RG108] was tested, and the “Score (sum of observed SD values for 18 genes)” value [1] was −0.52 SD.
In the case of CCN(CC)CCCCNc1ncc2cc(-c3cc(OC)cc(OC)c3)c(NC(=O)NC(C)(C)C)nc2n1 [PD173074], the “Score (sum of observed SD values for 18 genes)” value [1] was −46.63 SD and the “synergy / antagonism of drug” value [2] was “significant synergy with nine or more genes”.
Cl.Cl.NC1(c2ccc(-c3nc4ccc5n[nH]c(=O)n5c4cc3-c3ccccc3)cc2)CCC1 [MK-2206 2HCI] was tested, and the “Score (sum of observed SD values for 18 genes)” value [1] was −23.29 SD.
In the case of C[C@H]1COC2(CCN(c3nc(=O)c4cc(C(F)(F)F)cc([N+](=O)[O-])c4s3)CC2)O1 [BTZ043], the “Score (sum of observed SD values for 18 genes)” value [1] was −13.06 SD.
With CC(O)(CS(=O)(=O)c1ccc(F)cc1)C(=O)Nc1ccc(C#N)c(C(F)(F)F)c1 (centres unmarked) [Bicalutamide] the “Score (sum of observed SD values for 18 genes)” value [1] was −23.24 SD.
With COc1ccc(Cl)c(Nc2nc3ccccc3nc2NS(=O)(=O)c2cccc(NC(=O)C(C)(C)N)c2)c1 [XL147] the “Score (sum of observed SD values for 18 genes)” value [1] was −30.94 SD.
Cn1cnc(N)c2ncnc1-2 [3-Methyladenine] was tested, and the “Score (sum of observed SD values for 18 genes)” value [1] was −24.92 SD.
For S=C(NCc1ccc2c(c1)OCO2)N1CCN(c2ncnc3c2oc2ccccc23)CC1 [Amuvatinib], the “Score (sum of observed SD values for 18 genes)” value [1] was 12.37 SD.
With O=c1cc(N2CCOCC2)oc2c(-c3cccc4c3sc3ccccc34)cccc12 [NU7441] the “Score (sum of observed SD values for 18 genes)” value [1] was −10.42 SD.
NC(=O)Nc1sc(-c2ccc(F)cc2)cc1C(N)=O [TPCA-1] was tested, and the “Score (sum of observed SD values for 18 genes)” value [1] was 4.7 SD.
In the case of CC(C)c1cc(-c2n[nH]c(=O)n2-c2ccc3c(ccn3C)c2)c(O)cc1O [Ganetespib], the “Score (sum of observed SD values for 18 genes)” value [1] was 8.4 SD.
With Cc1ccc(F)c(NC(=O)Nc2ccc(-c3cccc4[nH]nc(N)c34)cc2)c1 [Linifanib] the “Score (sum of observed SD values for 18 genes)” value [1] was −25.28 SD.
With C=CCNC1=C2C[C@@H](C)C[C@H](OC)[C@H](O)[C@@H](C)/C=C(\C)[C@H](OC(N)=O)[C@@H](OC)/C=C\C=C(/C)C(=O)NC(=CC1=O)C2=O [17-AAG] the “Score (sum of observed SD values for 18 genes)” value [1] was −6.69 SD.
For CO[C@H]1C[C@@H]2CC[C@@H](C)[C@@](O)(O2)C(=O)C(=O)N2CCCC[C@H]2C(=O)O[C@H]([C@H](C)C[C@@H]2CC[C@@H](OCCO)[C@H](OC)C2)CC(=O)[C@H](C)/C=C(\C)[C@@H](O)[C@@H](OC)C(=O)[C@H](C)C[C@H](C)/C=C/C=C/C=C/1C [Everolimus], the “number of genes (of 18) whose knockdown synergizes with the drug” value (OVCAR-8, drug 100 nM, siRNA knockdown) was 14 genes.
For C/C(=C\c1csc(C)n1)[C@@H]1C[C@@H]2O[C@@H]2CCC[C@H](C)[C@H](O)[C@@H](C)C(=O)C(C)(C)[C@@H](O)CC(=O)O1 [Epothilone A], the “Score (sum of observed SD values for 18 genes)” value [1] was 16.97 SD.
With C[C@H]1C[C@H]2[C@@H]3CCC4=CC(=O)C=C[C@]4(C)[C@H]3C(=O)C[C@]2(C)[C@@]1(O)C(=O)CO [Meprednisone] the “Score (sum of observed SD values for 18 genes)” value [1] was −25.82 SD.
In the case of Cn1cc(C2=C(c3ccc(Cl)cc3Cl)C(=O)NC2=O)c2ccccc21 [SB216763], the “Score (sum of observed SD values for 18 genes)” value [1] was −11.62 SD.
NC(=O)c1ccc(-c2nc(-c3ccccn3)c(-c3ccc4c(c3)OCO4)[nH]2)cc1 [SB 431542] was tested, and the “Score (sum of observed SD values for 18 genes)” value [1] was −30.82 SD.
CCc1ccc(CCOc2ccc(CC3SC(=O)NC3=O)cc2)nc1 (centres unmarked) [Pioglitazone] was tested, and the “Score (sum of observed SD values for 18 genes)” value [1] was −37.6 SD.
Cl.Nc1ccn([C@@H]2O[C@H](CO)[C@@H](O)C2(F)F)c(=O)n1 [Gemcitibine HCI] was tested, and the “Score (sum of observed SD values for 18 genes)” value [1] was 35.88 SD.
For CC(=O)OCC(=O)[C@@]1(O)[C@H](C)C[C@H]2[C@@H]3CCC4=CC(=O)C=C[C@]4(C)[C@@]3(F)[C@@H](O)C[C@@]21C [Dexamethasone Acetate], the “Score (sum of observed SD values for 18 genes)” value [1] was 6.26 SD.
For CC(=O)NCC(=O)N1[C@@H]2CC[C@H]1c1ccc(Nc3ncc(C(F)(F)F)c(NC4CCC4)n3)cc12 [PF-03814735], the “Score (sum of observed SD values for 18 genes)” value [1] was −30.13 SD and the “synergy / antagonism of drug” value [2] was “significant synergy”.
In the case of CN1CCC(CNc2ccc3ncc(-c4cccc(OC(F)(F)F)c4)n3n2)CC1 [SGI - 1776], the “Score (sum of observed SD values for 18 genes)” value [1] was −12.21 SD.
For COc1c(C)c2c(c(O)c1C/C=C(\C)CCC(=O)OCCN1CCOCC1)C(=O)OC2 [Mycophenolate mofetil], the “Score (sum of observed SD values for 18 genes)” value [1] was −3.2 SD.
With CC(/C=C/C(=O)NO)=C\[C@@H](C)C(=O)c1ccc(N(C)C)cc1 [Trichostatin A] the “Score (sum of observed SD values for 18 genes)” value [1] was −38.93 SD and the “synergy / antagonism of drug” value [2] was “mostly synergistic”.
With “KLHL5: siRNA knocking down KLHL5; sense CAGGCCGCCUUGAAUUAAAtt (SEQ ID NO 23) (sense CAGGCCGCCUUGAAUUAAANN; antisense UUUAAUUCAAGGCGGCCUGNN; listed as RNA, chemistry not given here)” the “number of tested HDACi highly synergistic with the gene knockdown” value (OVCAR-8, 12 tested HDACi) was “at least six”, the “number of antagonistic/additive or highly antagonistic compounds with the gene knockdown” value (OVCAR-8, 346 compounds) was “Twelve or fewer” and the “number of Aurora Kinase inhibitors with significant synergy with the gene knockdown” value (OVCAR-8, eleven tested inhibitors) was “eight of the eleven”.
